Test results taken from article doi:10.1101/2023.12.04.569845, “Identification of 4-(6-((2-methoxyphenyl)amino)pyrazin-2-yl)benzoic acids as CSNK2A inhibitors with antiviral activity and improved selectivity over PIM3” (bioRxiv, 2023).
Where two headings read alike, the source gives them in different places. One block for each molecule: values may come before it.

Legend:
Assay in all cases: biochemical
Parameters in all cases: Thermal shift (DSF, SYPRO Orange) Tm shift of recombinant kinase domains at 10 uM compound
CAMK1G = CAMK1G (Homo sapiens, UniProt Q96NX5)
CAMK1G, sequence (Q96NX5 whole entry): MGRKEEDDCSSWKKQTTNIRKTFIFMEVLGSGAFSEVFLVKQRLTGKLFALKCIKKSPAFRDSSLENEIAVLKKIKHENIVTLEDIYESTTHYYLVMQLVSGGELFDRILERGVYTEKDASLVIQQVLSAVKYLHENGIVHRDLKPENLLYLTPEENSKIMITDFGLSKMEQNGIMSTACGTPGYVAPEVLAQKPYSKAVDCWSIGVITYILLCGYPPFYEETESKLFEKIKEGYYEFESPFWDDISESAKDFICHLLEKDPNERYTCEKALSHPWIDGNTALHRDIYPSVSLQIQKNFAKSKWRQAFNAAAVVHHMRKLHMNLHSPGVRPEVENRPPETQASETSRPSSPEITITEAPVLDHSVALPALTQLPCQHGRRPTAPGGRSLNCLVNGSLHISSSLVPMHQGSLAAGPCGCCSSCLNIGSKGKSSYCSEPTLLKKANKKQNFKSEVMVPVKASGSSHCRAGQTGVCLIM
Description: (§1) S23 Thermal stability kinase selectivity. The assay was performed as previously described. 9,10 Briefly, recombinant protein kinase domains at a concentration of 2 μM were mixed with 10 μM compound in a buffer containing 20 mM HEPES, pH 7.5, and 500 mM NaCl. SYPRO Orange (5000×, Invitrogen) was added as a fluorescence probe (1 µl per mL). Subsequently, temperature-dependent protein unfolding profiles were measured using the QuantStudio™ 5 realtime PCR machine (Thermo Fisher). […] The temperature was raised with a step rate of 3°C per minute. Data points were analysed with the internal software (Thermal Shift SoftwareTM Version 1.4, Thermo Fisher) using the Boltzmann equation to determine the inflection point of the transition curve.

CLK3 = CLK3 (Homo sapiens, UniProt P49761)
CLK3, sequence (P49761 whole entry): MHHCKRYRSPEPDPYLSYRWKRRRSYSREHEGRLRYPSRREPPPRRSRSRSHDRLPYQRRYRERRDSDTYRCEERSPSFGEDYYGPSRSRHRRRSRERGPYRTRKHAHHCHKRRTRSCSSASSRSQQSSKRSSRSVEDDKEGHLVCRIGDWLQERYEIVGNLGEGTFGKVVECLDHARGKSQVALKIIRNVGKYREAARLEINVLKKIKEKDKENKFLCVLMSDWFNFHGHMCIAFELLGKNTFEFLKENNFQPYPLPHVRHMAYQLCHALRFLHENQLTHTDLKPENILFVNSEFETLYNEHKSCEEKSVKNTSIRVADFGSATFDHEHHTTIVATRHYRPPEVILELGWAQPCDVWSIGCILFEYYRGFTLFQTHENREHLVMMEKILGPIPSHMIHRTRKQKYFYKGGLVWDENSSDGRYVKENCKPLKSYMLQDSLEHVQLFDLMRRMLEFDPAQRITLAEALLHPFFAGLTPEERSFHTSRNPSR
Description: as §1

PAK1 = PAK1 (Homo sapiens, UniProt Q13153)
PAK1, sequence (Q13153 whole entry): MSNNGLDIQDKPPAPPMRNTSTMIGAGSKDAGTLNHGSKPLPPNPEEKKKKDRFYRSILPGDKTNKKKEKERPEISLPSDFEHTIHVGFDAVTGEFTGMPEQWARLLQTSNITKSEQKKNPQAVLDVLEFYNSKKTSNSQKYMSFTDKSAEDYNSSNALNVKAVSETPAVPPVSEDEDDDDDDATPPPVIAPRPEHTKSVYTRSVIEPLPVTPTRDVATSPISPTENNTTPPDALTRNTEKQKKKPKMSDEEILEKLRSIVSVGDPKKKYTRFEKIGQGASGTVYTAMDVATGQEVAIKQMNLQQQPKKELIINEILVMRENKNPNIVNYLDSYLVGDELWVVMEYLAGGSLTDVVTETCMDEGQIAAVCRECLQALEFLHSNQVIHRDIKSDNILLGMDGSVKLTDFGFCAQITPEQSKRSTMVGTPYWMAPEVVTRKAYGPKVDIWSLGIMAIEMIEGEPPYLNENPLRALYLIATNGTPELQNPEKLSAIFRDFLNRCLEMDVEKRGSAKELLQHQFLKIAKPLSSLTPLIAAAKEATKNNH
Description: as §1

NEK1 = molecular target: T1, NEK1 (Homo sapiens, UniProt Q96PY6)
T1 sequence (Q96PY6 1-1258): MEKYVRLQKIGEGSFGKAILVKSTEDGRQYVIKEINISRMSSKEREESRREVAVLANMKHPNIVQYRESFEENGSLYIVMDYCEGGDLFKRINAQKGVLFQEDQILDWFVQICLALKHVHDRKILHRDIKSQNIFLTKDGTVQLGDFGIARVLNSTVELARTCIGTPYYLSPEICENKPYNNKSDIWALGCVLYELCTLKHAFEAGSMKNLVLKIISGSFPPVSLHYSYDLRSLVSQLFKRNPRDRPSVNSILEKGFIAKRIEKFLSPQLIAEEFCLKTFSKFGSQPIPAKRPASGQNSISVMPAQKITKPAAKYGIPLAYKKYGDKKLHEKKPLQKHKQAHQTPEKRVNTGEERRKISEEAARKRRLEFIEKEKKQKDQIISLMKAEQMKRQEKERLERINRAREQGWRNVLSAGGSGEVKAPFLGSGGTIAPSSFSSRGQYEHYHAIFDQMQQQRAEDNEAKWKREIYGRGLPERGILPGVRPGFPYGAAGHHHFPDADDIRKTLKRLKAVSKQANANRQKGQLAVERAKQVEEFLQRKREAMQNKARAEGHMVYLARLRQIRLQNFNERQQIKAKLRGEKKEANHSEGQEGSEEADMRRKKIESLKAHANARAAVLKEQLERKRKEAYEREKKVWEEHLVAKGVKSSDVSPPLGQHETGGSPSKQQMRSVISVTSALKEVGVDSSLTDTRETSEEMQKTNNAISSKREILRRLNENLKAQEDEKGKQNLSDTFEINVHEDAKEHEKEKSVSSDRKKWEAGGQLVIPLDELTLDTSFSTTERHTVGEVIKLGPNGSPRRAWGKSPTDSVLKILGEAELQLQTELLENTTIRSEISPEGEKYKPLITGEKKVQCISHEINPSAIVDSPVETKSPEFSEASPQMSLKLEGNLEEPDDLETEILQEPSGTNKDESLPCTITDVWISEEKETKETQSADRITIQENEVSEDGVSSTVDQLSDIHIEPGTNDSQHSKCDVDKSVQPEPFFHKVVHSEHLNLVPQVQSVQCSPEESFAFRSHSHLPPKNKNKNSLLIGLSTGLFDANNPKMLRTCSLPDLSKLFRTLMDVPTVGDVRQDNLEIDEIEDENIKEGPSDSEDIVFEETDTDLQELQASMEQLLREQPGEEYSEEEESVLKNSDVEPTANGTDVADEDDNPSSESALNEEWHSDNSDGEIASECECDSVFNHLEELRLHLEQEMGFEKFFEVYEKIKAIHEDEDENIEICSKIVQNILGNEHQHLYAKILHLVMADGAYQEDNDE
Description: as §1

MEK4 = molecular target: T2, MEK4 (Homo sapiens, UniProt P45985)
T2 construct: gene MAP2K4; kinase domain
T2 sequence (P45985 1-399): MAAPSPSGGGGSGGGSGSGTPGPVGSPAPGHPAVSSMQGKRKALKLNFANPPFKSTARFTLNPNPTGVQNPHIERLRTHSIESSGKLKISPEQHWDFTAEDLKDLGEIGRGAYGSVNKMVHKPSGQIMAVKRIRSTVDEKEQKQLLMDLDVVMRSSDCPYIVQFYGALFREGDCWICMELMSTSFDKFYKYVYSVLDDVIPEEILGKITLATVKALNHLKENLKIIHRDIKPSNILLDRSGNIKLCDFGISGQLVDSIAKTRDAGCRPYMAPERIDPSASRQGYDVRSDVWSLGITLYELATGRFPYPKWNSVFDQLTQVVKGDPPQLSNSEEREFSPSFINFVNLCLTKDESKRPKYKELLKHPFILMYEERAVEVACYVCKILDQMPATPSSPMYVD
Description: as §1

CDKL1 = CDKL1 (Homo sapiens, UniProt Q00532)
CDKL1, sequence (Q00532 whole entry): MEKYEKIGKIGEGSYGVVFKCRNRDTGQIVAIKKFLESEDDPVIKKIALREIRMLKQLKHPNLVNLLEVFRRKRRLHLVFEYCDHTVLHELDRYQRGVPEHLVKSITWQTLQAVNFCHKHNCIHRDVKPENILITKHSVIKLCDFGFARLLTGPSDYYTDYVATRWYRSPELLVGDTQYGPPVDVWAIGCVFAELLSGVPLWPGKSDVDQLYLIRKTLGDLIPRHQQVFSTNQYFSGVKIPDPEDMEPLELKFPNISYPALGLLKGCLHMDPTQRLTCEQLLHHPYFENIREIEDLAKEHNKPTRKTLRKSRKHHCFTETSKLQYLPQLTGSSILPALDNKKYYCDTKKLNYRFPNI
Description: as §1

p38a = molecular target: T3, p38a (Homo sapiens, UniProt Q16539)
T3 construct: gene MAPK14
T3 sequence (Q16539 whole entry): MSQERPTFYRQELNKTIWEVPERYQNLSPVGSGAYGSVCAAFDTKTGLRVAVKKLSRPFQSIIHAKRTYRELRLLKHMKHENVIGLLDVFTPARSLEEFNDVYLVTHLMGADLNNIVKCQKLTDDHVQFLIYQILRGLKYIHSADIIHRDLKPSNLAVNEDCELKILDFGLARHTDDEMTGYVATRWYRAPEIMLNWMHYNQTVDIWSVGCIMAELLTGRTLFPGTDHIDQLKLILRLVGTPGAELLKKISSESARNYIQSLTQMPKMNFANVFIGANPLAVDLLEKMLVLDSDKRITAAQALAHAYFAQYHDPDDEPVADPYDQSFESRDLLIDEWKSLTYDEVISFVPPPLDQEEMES
Description: as §1

CSNK1E = CSNK1E (Homo sapiens, UniProt P49674)
CSNK1E, sequence (P49674 whole entry): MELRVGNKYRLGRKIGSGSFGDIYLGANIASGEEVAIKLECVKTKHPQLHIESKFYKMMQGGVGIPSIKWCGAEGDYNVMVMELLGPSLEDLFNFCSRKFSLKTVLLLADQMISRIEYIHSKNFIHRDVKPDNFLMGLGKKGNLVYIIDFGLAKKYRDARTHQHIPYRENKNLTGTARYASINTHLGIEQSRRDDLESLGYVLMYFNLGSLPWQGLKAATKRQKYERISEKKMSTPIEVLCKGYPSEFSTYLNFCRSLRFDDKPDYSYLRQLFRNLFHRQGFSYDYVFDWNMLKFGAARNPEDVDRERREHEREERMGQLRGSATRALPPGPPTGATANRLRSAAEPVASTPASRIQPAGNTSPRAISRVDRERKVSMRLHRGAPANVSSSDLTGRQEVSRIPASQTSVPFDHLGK
Description: as §1

FES = FES (Homo sapiens, UniProt P07332)
FES, sequence (P07332 whole entry): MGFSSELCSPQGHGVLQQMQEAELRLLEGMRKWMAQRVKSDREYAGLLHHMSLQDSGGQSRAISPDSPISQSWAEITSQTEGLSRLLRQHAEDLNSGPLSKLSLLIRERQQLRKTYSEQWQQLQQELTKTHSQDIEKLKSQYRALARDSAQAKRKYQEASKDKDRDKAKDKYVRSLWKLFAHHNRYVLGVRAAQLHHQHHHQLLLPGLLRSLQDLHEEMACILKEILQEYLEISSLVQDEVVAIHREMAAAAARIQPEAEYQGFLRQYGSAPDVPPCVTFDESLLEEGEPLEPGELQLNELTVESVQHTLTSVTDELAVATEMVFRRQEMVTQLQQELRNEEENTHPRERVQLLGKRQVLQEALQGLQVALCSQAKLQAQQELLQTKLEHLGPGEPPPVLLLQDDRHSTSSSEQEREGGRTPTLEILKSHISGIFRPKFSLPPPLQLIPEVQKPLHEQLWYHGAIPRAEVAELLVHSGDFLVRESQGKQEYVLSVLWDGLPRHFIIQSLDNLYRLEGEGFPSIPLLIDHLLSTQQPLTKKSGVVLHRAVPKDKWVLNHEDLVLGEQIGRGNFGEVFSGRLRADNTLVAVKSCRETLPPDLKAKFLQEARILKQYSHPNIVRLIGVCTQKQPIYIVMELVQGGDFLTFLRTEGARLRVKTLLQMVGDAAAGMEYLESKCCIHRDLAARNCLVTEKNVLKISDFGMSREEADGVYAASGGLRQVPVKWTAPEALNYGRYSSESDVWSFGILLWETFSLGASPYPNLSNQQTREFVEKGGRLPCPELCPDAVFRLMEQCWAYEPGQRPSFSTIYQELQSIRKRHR
Description: as §1

CLK1 = CLK1 (Homo sapiens, UniProt P49759)
CLK1, sequence (P49759 whole entry): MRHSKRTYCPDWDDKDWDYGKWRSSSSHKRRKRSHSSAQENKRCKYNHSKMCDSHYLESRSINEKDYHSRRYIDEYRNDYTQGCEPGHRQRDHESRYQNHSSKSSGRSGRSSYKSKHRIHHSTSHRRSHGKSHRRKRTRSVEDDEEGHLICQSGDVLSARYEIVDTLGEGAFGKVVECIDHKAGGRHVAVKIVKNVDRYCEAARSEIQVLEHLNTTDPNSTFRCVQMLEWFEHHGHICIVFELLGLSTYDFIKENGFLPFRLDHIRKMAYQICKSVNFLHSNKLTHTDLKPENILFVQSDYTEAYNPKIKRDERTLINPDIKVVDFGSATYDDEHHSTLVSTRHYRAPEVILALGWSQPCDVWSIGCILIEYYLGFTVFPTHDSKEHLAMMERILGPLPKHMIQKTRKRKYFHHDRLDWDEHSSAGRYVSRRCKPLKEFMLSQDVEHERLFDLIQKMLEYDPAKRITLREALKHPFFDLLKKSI
Description: as §1

ΔTm at 10 µM (CAMK1G; read-out: 7c): -1 °C
ΔTm at 10 µM (CLK3; read-out: 7c): 7 °C
ΔTm at 10 µM (PAK1; read-out: 7c): -1 °C
ΔTm at 10 µM (NEK1; read-out: 7c): 0 °C
ΔTm at 10 µM (MEK4; read-out: 7c): 2 °C
ΔTm at 10 µM (CDKL1; read-out: 7c): 1 °C
ΔTm at 10 µM (p38a; read-out: 7c): -1 °C
ΔTm at 10 µM (CSNK1E; read-out: 7c): 1 °C
ΔTm at 10 µM (FES; read-out: 7c): 0 °C
ΔTm at 10 µM (CLK1; read-out: 7c): 7 °C
Compound: COc1ccc(OC(C)C)cc1Nc1cncc(-c2ccc(C(=O)O)cc2)n1 [7c]

ΔTm at 10 µM (CAMK1G; read-out: 6c): 0 °C
ΔTm at 10 µM (CLK3; read-out: 6c): 8 °C
ΔTm at 10 µM (PAK1; read-out: 6c): 0 °C
ΔTm at 10 µM (NEK1; read-out: 6c): 0 °C
ΔTm at 10 µM (MEK4; read-out: 6c): 9 °C
ΔTm at 10 µM (CDKL1; read-out: 6c): 3 °C
ΔTm at 10 µM (p38a; read-out: 6c): -3 °C
ΔTm at 10 µM (CSNK1E; read-out: 6c): 3 °C
ΔTm at 10 µM (FES; read-out: 6c): -1 °C
ΔTm at 10 µM (CLK1; read-out: 6c): 7 °C
Compound: CC(C)Oc1ccc2ccn(-c3cncc(-c4ccc(C(=O)O)cc4)n3)c2c1 [6c]

ΔTm at 10 µM (CAMK1G; read-out: 2): 2 °C
ΔTm at 10 µM (CLK3; read-out: 2): 8 °C
ΔTm at 10 µM (PAK1; read-out: 2): 1 °C
ΔTm at 10 µM (NEK1; read-out: 2): 1 °C
ΔTm at 10 µM (MEK4; read-out: 2): 5 °C
ΔTm at 10 µM (CDKL1; read-out: 2): 2 °C
ΔTm at 10 µM (p38a; read-out: 2): -1 °C
ΔTm at 10 µM (CSNK1E; read-out: 2): 2 °C
ΔTm at 10 µM (FES; read-out: 2): 2 °C
ΔTm at 10 µM (CLK1; read-out: 2): 7 °C
Compound: CC(C)Nc1ccc2cnn(-c3cncc(-c4ccc(C(=O)O)cc4)n3)c2c1 [compound 2, 2]
